Measured values as given in patent US7223759B2, “Antibacterial 3,5-diaminopiperidine-substituted aromatic and heteroaromatic compounds” (Anadys Pharmaceuticals, Inc., priority 2003, dated 2007).
Like-named read-outs stand apart in the source and are kept apart here.

Test system: Escherichia coli (ATCC25922) or Staphylococcus aureus (ATCC25923)
Assay: Antibacterial MIC, microdilution method in Mueller-Hinton medium
Format: cell-based
Settings: Escherichia coli, 18 h, read-out: Potency (MIC)
How it was run: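 Two-fold serial dilutions from 64 to 0.5 μg/ml, in duplicate, by broth microdilution in Mueller-Hinton medium (NCCLS M7-A5). MIC taken as the lowest concentration preventing visible growth after 18 h at 35° C.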

[1] = MIC in E. coli or S. aureus, two-fold serial dilutions 64 to 0.5 μg/ml in duplicate, 18 hours of incubation at 35° C.

MIC [1] [µg/mL] | Structure (SMILES) | MIC [µg/mL]
 | N[C@@H]1C[C@H](N)CN(c2nc(Nc3ccc(C(=O)Nc4ccc(Cl)c(Cl)c4)c(O)c3)nc(N3C[C@H](N)C[C@H](N)C3)n2)C1 [N-[4-(3,4-dichloro-phenylcarbamoyl)-3-hydroxy-phenyl]-4,6-Bis-((3R,5S)-3,5-diamino-piperidin-1-yl)-[1,3,5]triazine-2-amine] | < 16
 | N[C@@H]1C[C@H](N)CN(c2nc(Nc3ccc(NC(=O)c4ccc(F)c(F)c4O)c(O)c3)nc(N3C[C@H](N)C[C@H](N)C3)n2)C1 [N-[4-(3,4-difluoro-2-hydroxy-benzoylamino)-3-hydroxy-phenyl]-4,6-Bis-((3R,5S)-3,5-diamino-piperidin-1-yl)-[1,3,5]triazine-2-amine] | < 64
 | N[C@@H]1C[C@H](N)CN(c2nc(Nc3ccc(NC(=O)c4ccc(F)c(F)c4O)cc3)nc(N3C[C@H](N)C[C@H](N)C3)n2)C1 [N-[4-(3,4-difluoro-2-hydroxy-benzoylamino)-phenyl]-4,6-Bis-((3R,5S)-3,5-diamino-piperidin-1-yl)-[1,3,5]triazine-2-amine] | < 64
 | N[C@@H]1C[C@H](N)CN(c2nc(Nc3ccc(C(=O)Nc4ccc(F)c(F)c4)c(O)c3)nc(N3C[C@H](N)C[C@H](N)C3)n2)C1 [N-[4-(3,4-difluoro-phenylcarbamoyl)-3-hydroxy-phenyl]-4,6-Bis-((3R,5S)-3,5-diamino-piperidin-1-yl)-[1,3,5]triazine-2-amine] | < 16
 | COc1ccc(S(=O)(=O)Nc2ccc(Nc3nc(N4C[C@H](N)C[C@H](N)C4)nc(N4C[C@H](N)C[C@H](N)C4)n3)cc2O)cc1OC [N-[4-(3,4-dimethoxy-benzenesulfonylamino)-3-hydroxy-phenyl]-4,6-Bis-((3R,5S)-3,5-diamino-piperidin-1-yl)-[1,3,5]triazine-2-amine] | > 64
 | Cc1noc(NS(=O)(=O)c2ccc(Nc3nc(N4C[C@H](N)C[C@H](N)C4)nc(N4C[C@H](N)C[C@H](N)C4)n3)cc2)c1C [N-[4-(3,4-dimethyl-isoxazol-5-ylsulfamoyl)-phenyl]-4,6-Bis-((3R,5S)-3,5-diamino-piperidin-1-yl)-[1,3,5]triazine-2-amine] | > 64
 | N[C@@H]1C[C@H](N)CN(c2nc(Nc3ccc(NS(=O)(=O)c4cc(Cl)cc(Cl)c4O)c(O)c3)nc(N3C[C@H](N)C[C@H](N)C3)n2)C1 [N-[4-(3,5-dichloro-2-hydroxy-benzenesulfonylamino)-3-hydroxy-phenyl]-4,6-Bis-((3R,5S)-3,5-diamino-piperidin-1-yl)-[1,3,5]triazine-2-amine] | < 16
 | N[C@@H]1C[C@H](N)CN(c2nc(Nc3ccc(C(=O)Nc4cc(Cl)c(O)c(Cl)c4)c(O)c3)nc(N3C[C@H](N)C[C@H](N)C3)n2)C1 [N-[4-(3,5-dichloro-4-hydroxy-phenylcarbamoyl)-3-hydroxy-phenyl]-4,6-Bis-((3R,5S)-3,5-diamino-piperidin-1-yl)-[1,3,5]triazine-2-amine] | < 64
 | N[C@@H]1C[C@H](N)CN(c2nc(Nc3ccc(NS(=O)(=O)c4cc(Cl)cc(Cl)c4)c(O)c3)nc(N3C[C@H](N)C[C@H](N)C3)n2)C1 [N-[4-(3,5-dichloro-benzenesulfonylamino)-3-hydroxy-phenyl]-4,6-Bis-((3R,5S)-3,5-diamino-piperidin-1-yl)-[1,3,5]triazine-2-amine] | < 64
 | N[C@@H]1C[C@H](N)CN(c2nc(Nc3ccc(NC(=O)c4cccc(Br)c4)c(O)c3)nc(N3C[C@H](N)C[C@H](N)C3)n2)C1 [N-[4-(3-bromo-benzoylamino)-3-hydroxy-phenyl]-4,6-Bis-((3R,5S)-3,5-diamino-piperidin-1-yl)-[1,3,5]triazine-2-amine] | < 16
 | N[C@@H]1C[C@H](N)CN(c2nc(Nc3ccc(C(=O)Nc4ccc(F)c(Cl)c4)c(O)c3)nc(N3C[C@H](N)C[C@H](N)C3)n2)C1 [N-[4-(3-chloro-4-fluoro-phenylcarbamoyl)-3-hydroxy-phenyl]-4,6-Bis-((3R,5S)-3,5-diamino-piperidin-1-yl)-[1,3,5]triazine-2-amine] | < 16
 | N[C@@H]1C[C@H](N)CN(c2nc(Nc3ccc(C(=O)Nc4cccc(Cl)c4)c(O)c3)nc(N3C[C@H](N)C[C@H](N)C3)n2)C1 [N-[4-(3-chloro-phenylcarbamoyl)-3-hydroxy-phenyl]-4,6-Bis-((3R,5S)-3,5-diamino-piperidin-1-yl)-[1,3,5]triazine-2-amine] | < 16
 | N[C@@H]1C[C@H](N)CN(c2nc(Nc3ccc(NS(=O)(=O)CCCCl)c(O)c3)nc(N3C[C@H](N)C[C@H](N)C3)n2)C1 [N-[4-(3-chloro-propane-1-sulfonylamino)-3-hydroxy-phenyl]-4,6-Bis-((3R,5S)-3,5-diamino-piperidin-1-yl)-[1,3,5]triazine-2-amine] | > 64
 | Cc1nc(NS(=O)(=O)c2ccc(Nc3nc(N4C[C@H](N)C[C@H](N)C4)nc(N4C[C@H](N)C[C@H](N)C4)n3)cc2)oc1C [N-[4-(4,5-dimethyl-oxazol-2-ylsulfamoyl)-phenyl]-4,6-Bis-((3R,5S)-3,5-diamino-piperidin-1-yl)-[1,3,5]triazin-2-amine] | > 64
< 64 | Cl.Nc1ccc(S(=O)(=O)Nc2ccc(Nc3nc(N4CCCCC4)nc(N4CCCCC4)n3)cc2O)cc1 [N-[4-(4-amino-benzenesulfonylamino)-3-hydroxy-phenyl]-4,6-Bis-((3R,5S)-33,5-diamino-piperidin-1-yl)-[1,3,5]triazine-2-amine] | 
 | NC(=O)c1ccc(NC(=O)c2ccc(Nc3nc(N4C[C@H](N)C[C@H](N)C4)nc(N4C[C@H](N)C[C@H](N)C4)n3)cc2O)cc1 [N-[4-(4-carbamoyl-phenylcarbamoyl)-3-hydroxy-phenyl]-4,6-Bis-((3R,5S)-3,5-diamino-piperidin-1-yl)-[1,3,5]triazine-2-amine] | > 64
 | N[C@@H]1C[C@H](N)CN(c2nc(Nc3ccc(NC(=O)c4ccc(Cl)cc4O)c(F)c3)nc(N3C[C@H](N)C[C@H](N)C3)n2)C1 [N-[4-(4-chloro-2-hydroxy-benzoylamino)-3-fluoro-phenyl]-4,6-Bis-((3R,5S)-3,5-diamino-piperidin-1-yl)-[1,3,5]triazine-2-amine] | < 16
 | N[C@@H]1C[C@H](N)CN(c2nc(Nc3ccc(NC(=O)c4ccc(Cl)cc4O)c(O)c3)nc(N3C[C@H](N)C[C@H](N)C3)n2)C1 [N-[4-(4-chloro-2-hydroxy-benzoylamino)-3-hydroxy-phenyl]-4,6-Bis-((3R,5S)-3,5-diamino-piperidin-1-yl)-[1,3,5]triazine-2-amine] | < 16
 | Cc1cc(Nc2nc(N3C[C@H](N)C[C@H](N)C3)nc(N3C[C@H](N)C[C@H](N)C3)n2)ccc1NC(=O)c1ccc(Cl)cc1O [N-[4-(4-chloro-2-hydroxy-benzoylamino)-3-methyl-phenyl]-4,6-Bis-((3R,5S)-3,5-diamino-piperidin-1-yl)-[1,3,5]triazine-2-amine] | < 16
 | N[C@@H]1C[C@H](N)CN(c2nc(Nc3ccc(NC(=O)c4ccc(Cl)cc4O)c(C(=O)Nc4ccccc4)c3)nc(N3C[C@H](N)C[C@H](N)C3)n2)C1 [N-[4-(4-chloro-2-hydroxy-benzoylamino)-3-phenylcarbamoyl-phenyl]-4,6-Bis-((3R,5S)-3,5-diamino-piperidin-1-yl)-[1,3,5]triazine-2-amine] | < 16
 | N[C@@H]1C[C@H](N)CN(c2nc(Nc3ccc(NC(=O)c4ccc(Cl)cc4O)c(C(F)(F)F)c3)nc(N3C[C@H](N)C[C@H](N)C3)n2)C1 [N-[4-(4-chloro-2-hydroxy-benzoylamino)-3-trifluoromethyl-phenyl]-4,6-Bis-((3R,5S)-3,5-diamino-piperidin-1-yl)-[1,3,5]triazine-2-amine] | < 16
 | N[C@@H]1C[C@H](N)CN(c2nc(Nc3ccc(NC(=O)c4ccc(Cl)cc4O)cc3)nc(N3C[C@H](N)C[C@H](N)C3)n2)C1 [N-[4-(4-chloro-2-hydroxy-benzoylamino)-phenyl]-4,6-Bis-((3R,5S)-3,5-diamino-piperidin-1-yl)-[1,3,5]triazine-2-amine] | < 16
 | N[C@@H]1C[C@H](N)CN(c2nc(Nc3ccc(NC(=O)c4ccc(Cl)cc4)c(O)c3)nc(N3C[C@H](N)C[C@H](N)C3)n2)C1 [N-[4-(4-chloro-benzoylamino)-3-hydroxy-phenyl]-4,6-Bis-((3R,5S)-3,5-diamino-piperidin-1-yl)-[1,3,5]triazine-2-amine] | < 16
 | N[C@@H]1C[C@H](N)CN(c2nc(Nc3ccc(C(=O)Nc4ccc(Cl)cc4)c(O)c3)nc(N3C[C@H](N)C[C@H](N)C3)n2)C1 [N-[4-(4-chloro-phenylcarbamoyl)-3-hydroxy-phenyl]-4,6-Bis-((3R,5S)-3,5-diamino-piperidin-1-yl)-[1,3,5]triazine-2-amine] | < 64
< 16 | COc1cc(Nc2nc(N3CCCCC3)nc(N3CCCCC3)n2)ccc1NC(=O)c1ccc(Cl)cc1O.Cl [N-[4-(4-chlorro-2-hydroxy-benzoylamino)-3-methoxy-phenyl]-4,6-Bis-((3R,5S)-3,5-diamino-piperidin-1-yl)-[1,3,5]triazine-2-amine] | 
 | N#Cc1ccc(NC(=O)c2ccc(Nc3nc(N4C[C@H](N)C[C@H](N)C4)nc(N4C[C@H](N)C[C@H](N)C4)n3)cc2O)cc1 [N-[4-(4-cyano-phenylcarbamoyl)-3-hydroxy-phenyl]-4,6-Bis-((3R,5S)-3,5-diamino-piperidin-1-yl)-[1,3,5]triazine-2-amine] | < 64
 | CCCCCCCCCC(=O)Nc1ccc(S(=O)(=O)Nc2ccc(Nc3nc(N4C[C@H](N)C[C@H](N)C4)nc(N4C[C@H](N)C[C@H](N)C4)n3)cc2O)cc1 [N-[4-(4-decanoylamino-benzenesulfonylamino)-3-hydroxy-phenyl]-4,6-Bis-((3R,5S)-3,5-diamino-piperidin-1-yl)-[1,3,5]triazine-2-amine] | < 16
 | CN(C)c1ccc(C(=O)Nc2ccc(Nc3nc(N4C[C@H](N)C[C@H](N)C4)nc(N4C[C@H](N)C[C@H](N)C4)n3)cc2O)c(O)c1 [N-[4-(4-dimethylamino-2-hydroxy-benzoylamino)-3-hydroxy-phenyl]-4,6-Bis-((3R,5S)-3,5-diamino-piperidin-1-yl)-[1,3,5]triazine-2-amine] | < 16
